Measurements as given in patent US8507464B2, “Phosphoramidate alkylator prodrugs” (Threshold Pharmaceuticals, Inc., priority 2005, dated 2013).
pIC50: −log10 of the molar value. ≈ marks a conversion by molar mass, not a printed value. Like-named read-outs stand apart in the source and are kept apart here.

Tests used:
[1] = tested on: H460 lung carcinoma spheroids; test: Spheroid model, clonogenic survival; details: Homo sapiens, NCI-H460, 2 h, read-out: IC90 H460 Spheroid 10% O2
[2] = tested on: HT29 cells; test: Antiproliferation assay (Alamar Blue), anoxia vs air; details: Homo sapiens, HT-29, 2 h
[3] = tested on: DX-5; test: Anti-proliferation assay, hypoxia vs normoxia (Table 1B)
[4] = tested on: NCI-H460 cells; test: Antiproliferation assay (Alamar Blue), anoxia vs air; details: Homo sapiens, NCI-H460, 2 h
[5] = tested on: HT29; test: Clonogenic assay, hypoxia vs normoxia (Table 1B); details: for IC90: Homo sapiens
[6] = in vivo; details: 50 mg/kg
[7] = tested on: H460 cells exposed as monolayers; test: Clonogenic survival of monolayer cells (Example 35); details: Homo sapiens, NCI-H460, 2 h
[8] = tested on: HT29; test: Anti-proliferation assay, hypoxia vs normoxia (Table 1B); details: for pIC50: Homo sapiens
[9] = tested on: MES-SA/Dx5 cells; test: Antiproliferation assay (Alamar Blue), anoxia vs air; details: Homo sapiens, MES-SA/Dx5, 2 h
[10] = format: physicochemical; details: glassy carbon, Ag/AgCl reference; for Reduction Potentials, 100 mV/sec: scan rate 100 mV/sec; for Reduction Potentials, 10,000 mV/sec: scan rate 10,000 mV/sec
[11] = Pharmacokinetics after intravenous or intraperitoneal administration in mice (Table 2B); details: plasma, 50 mg/kg
[12] = tested on: NCI-H460 cells; test: Antiproliferation assay - oxygen dependence; format: cell-based, human; details: Homo sapiens
Excerpt: . […] The calculated IC50 values (μM) are tabulated in Table Y1 (H460 cells) or Table Y2 (HT29 cells) below.

[13] = tested on: human H460 cells; test: Clonogenic survival assay, hypoxia vs normoxia (Table 1A); details: for IC90: Homo sapiens; for HCR C: ratio of IC90 in normoxia and hypoxia
[14] = tested on: H460 cell line; test: Anti-proliferation assay, hypoxia vs normoxia (Table 1A); details: for pIC50: Homo sapiens; for HCR P: ratio of IC50 in normoxia and hypoxia
[15] = Plasma stability (Table 2B)
[16] = tested on: HT-29 human colon carcinoma xenograft; test: HT-29 human colon carcinoma xenograft mouse model (Example 47); format: in vivo; details: Group 8: 5FU 10 mg/kg; vs vehicle
Method: Female CB17/SCID mice (purchased from Charles River, Cambridge, Mass.), 7-8 weeks of age, were allowed to acclimatize for at least three days, and handled under pathogen-free conditions. Human colon carcinoma cell line HT-29 was obtained from the American Type Culture Collection. The cell lines were cultured in RPMI 1640 media supplemented with 10% fetal bovine serum. Cells were maintained in a 37° C. incubator with 5% CO2. The HT-29 cells were harvested from culture and inoculated at 3×10^6 cells/animal in the peritoneal subcutaneous space. When the tumors grew to an average volume of 100 mm^3 (day 8), each group of 10 mice was administered, for three weeks, vehicle alone (saline and PEG (10 mL/kg each), Group 1), Compound 36 alone (dissolved in 30% cyclodextrin in PBS) at a daily dose of 20, 60, or 200 mg/kg (Groups 2, 3 and 4, respectively), and Compound 36 at a daily dose of 20, 60, and 200 mg/kg given 2-3 hours after a dose of 10 mg/kg of 5FU (in saline) (Group 5, 6 and 7, respectively) and compared to a group receiving only 5FU at 10 mg/kg (Group 8) as tabulated below.
The body weight of each mouse was recorded twice per week. Growth of each xenograft was monitored by externally measuring tumors in two dimensions using a digital caliper twice per week. Tumor volume (V) was determined by the following equation: V=(L×W^2)/2, where L is the length and W is the width of a xenograft. Tumor volumes were measured twice weekly.

[17] = tested on: NCI-H460 cells; test: Clonogenic assay - oxygen dependence; details: Homo sapiens
[18] = tested on: mouse (MLM) liver microsomal proteins; format: in vitro ADME; details: Table 2B
[19] = tested on: MES-SA cells; test: Antiproliferation assay (Alamar Blue), anoxia vs air; details: Homo sapiens, 2 h
[20] = tested on: HCT116; test: Anti-proliferation assay, hypoxia vs normoxia (Table 1B); details: for pIC50: Homo sapiens
[21] = Solubility in saline at room temperature; format: physicochemical; details: saline or isotonic
[22] = read-out: IC50 H460 Air, air, 2 h exposure
[23] = read-out: IC50 H460 Anoxia, anoxia, 2 h exposure
[24] = HT-29, read-out: HT29 C H (clonogenic IC90, hypoxia)
[25] = HT-29, read-out: HT29 P H (proliferation IC50, hypoxia)
[26] = HT-29, read-out: HT29 P N (proliferation IC50, normoxic)
[27] = CD-1, Balb/c for Compound 1, mouse, ip
[28] = CD-1, Balb/c for Compound 1, mouse, iv
[29] = NCI-H460, read-out: IC50 in H460 cells, 0.3% O2
[30] = NCI-H460, read-out: IC50 in H460 cells, 0.6% O2
[31] = NCI-H460, read-out: IC50 in H460 cells, 1% O2
[32] = NCI-H460, read-out: IC50 in H460 cells, Air
[33] = NCI-H460, read-out: IC50 in H460 cells, N2
[34] = NCI-H460, read-out: Hypoxia C (clonogenic IC90)
[35] = NCI-H460, read-out: Normoxia C (clonogenic IC90)
[36] = NCI-H460, read-out: Hypoxia P (proliferation IC50)
[37] = NCI-H460, read-out: Normoxia P (proliferation IC50)

Cn1c(COP(N)(=O)N(CCCl)CCCl)cnc1[N+](=O)[O-] (stereo not drawn) [Compound 1]
IC90 [1]: > 100 µM | pIC50 ([2]; read-out: IC50 HT29 Air): < 4.00 | pIC50 ([2]; read-out: IC50 HT29 Anoxia): 4.30 | DX-5 HCR [3]: >100 | pIC50 ([3]; read-out: DX-5 P H (proliferation IC50, hypoxia)): 6.00 | pIC50 ([3]; read-out: DX-5 P N (proliferation IC50, normoxic)): < 4.00 | pIC50 [4, 22]: 4.14 | pIC50 [4, 23]: 6.40 | HT29 HCR C [5]: >100 | IC90 [5, 24]: 0.4 µM | IC90 ([5]; HT-29, read-out: HT29 C N (clonogenic IC90, normoxic)): 100 µM | Cmax ([6]; Balb/c, mouse, ip): 29900 ng/mL | Tmax ([6]; Balb/c, mouse, ip): 15 min | AUC ([6]; Balb/c, mouse, iv): 12500 ng·h/mL | Cmax ([6]; Balb/c, mouse, iv): 35000 ng/mL | Tmax ([6]; Balb/c, mouse, iv): 5 min | half-life ([6]; Balb/c, mouse, iv): 15.3 min | IC90 ([7]; read-out: IC90 H460 Monolayer Air): 75 µM | IC90 ([7]; read-out: IC90 H460 Monolayer N2): 0.35 µM | HT29 HCR P [8]: >2 | pIC50 [8, 25]: 4.30 | pIC50 [8, 26]: 4.00 | pIC50 ([9]; read-out: IC50 MES-SA/Dx5 Air): < 4.00 | pIC50 ([9]; read-out: IC50 MES-SA/Dx5 Anoxia): 6.00 | Reduction Potentials, 100 mV/sec [10]: −596 mV | Reduction Potentials, 10,000 mV/sec [10]: −638 mV | Cmax [11, 27]: 29900 ng/mL | AUC [11, 28]: 12500 ng·h/mL | Cmax [11, 28]: 35000 ng/mL | Vd [11, 28]: 1.48 L/kg | half-life [11, 28]: 15.6 min | half-life ([11]; mouse, ip): 15 min | pIC50 [12, 29]: 5.00 | pIC50 [12, 30]: 5.15 | pIC50 [12, 31]: 4.30 | pIC50 [12, 32]: 4.00 | pIC50 [12, 33]: 6.52 | IC90 [13, 34]: 0.35 µM | IC90 [13, 35]: 75 µM | HCR C [13]: 200 | pIC50 [14, 36]: 6.40 | pIC50 [14, 37]: 4.14 | HCR P [14]: 180 | Plasma stability (% at 30 min) [15]: 100%

O=c1[nH]cc(F)c(=O)[nH]1 [Compound 5FU, 5-fluoro-2,4(1H,3H)-pyrimidinedione, reference compound]
% Inhibition vs Group 1 [16]: 38.7%

O=[N+]([O-])c1ccc(COP(=O)(NCCCl)NCCCl)o1 [Compound 23]
pIC50 ([2]; read-out: IC50 HT29 Anoxia): 5.12 | IC90 ([17]; NCI-H460, read-out: IC90 H460 0.6% O2): 0.6 µM | IC90 ([17]; NCI-H460, read-out: IC90 H460 Air): 5 µM | IC90 ([17]; NCI-H460, read-out: IC90 H460 N2): 0.3 µM | IC90 [5, 24]: 2 µM | Cmax ([6]; CD-1, mouse, ip): 8500 ng/mL | Tmax ([6]; CD-1, mouse, ip): 5 min | half-life ([6]; CD-1, mouse, ip): 9.6 min | Cmax ([6]; CD-1, mouse, iv): 7800 ng/mL | Tmax ([6]; CD-1, mouse, iv): 5 min | half-life ([6]; CD-1, mouse, iv): 8.87 min | pIC50 [8, 25]: 5.12 | clearance ([11]; CD-1 (Compounds 5, 23, 36), Balb/c (Compound 1), mouse, iv): 368 mL/min/kg | AUC ([11]; CD-1, mouse, ip): 3500 ng·h/mL | Cmax [11, 27]: 8500 ng/mL | AUC [11, 28]: 2300 ng·h/mL | Cmax [11, 28]: 7800 ng/mL | Vd [11, 28]: 3.3 L/kg | half-life [11, 28]: 9 min | half-life ([11]; mouse, ip): 9.6 min | pIC50 ([12]; NCI-H460, read-out: IC50 in H460 cells, 0.1% O2): 5.30 | pIC50 [12, 30]: 5.22 | pIC50 [12, 31]: 5.30 | pIC50 [12, 32]: 5.30 | pIC50 [12, 33]: 7.30 | IC90 [13, 34]: 0.2 µM | IC90 [13, 35]: 10 µM | HCR C [13]: 50 | pIC50 [14, 36]: 7.40 | pIC50 [14, 37]: 5.30 | HCR P [14]: 125 | Metabolic stability (MLM) (% at 30 min) [18]: 71% | Plasma stability (% at 30 min) [15]: 84%

O=[N+]([O-])c1ccc(COP(=O)(NCCBr)NCCBr)s1 [Compound 34]
pIC50 ([2]; read-out: IC50 HT29 Air): 4.24 | pIC50 ([2]; read-out: IC50 HT29 Anoxia): 6.10 | pIC50 ([19]; read-out: IC50 MES-SA Air): 5.00 | pIC50 ([19]; read-out: IC50 MES-SA Anoxia): 6.89 | pIC50 [4, 22]: 5.74 | pIC50 [4, 23]: 8.00 | HCT116 HCR [20]: 77 | pIC50 ([20]; HCT-116, read-out: HCT116 P H (proliferation IC50, hypoxia)): 6.89 | pIC50 ([20]; HCT-116, read-out: HCT116 P N (proliferation IC50, normoxic)): 5.00 | HT29 HCR P [8]: 70 | pIC50 [8, 25]: 6.10 | pIC50 [8, 26]: 4.24 | Reduction Potentials, 100 mV/sec [10]: −584 mV | Reduction Potentials, 10,000 mV/sec [10]: −663 mV | pIC50 [12, 29]: 6.00 | pIC50 [12, 32]: 5.30 | pIC50 [12, 33]: 8.00 | pIC50 [14, 36]: > 8.00 | pIC50 [14, 37]: 5.74 | HCR P [14]: >180 | Metabolic stability (MLM) (% at 30 min) [18]: 28% | Plasma stability (at 20 min) ([15]; at 20 min): 85%

Cn1c([N+](=O)[O-])cnc1COP(=O)(NCCBr)NCCBr [Compound 73]
solubility [21]: 10000 µg/mL (≈ 22.3 mM)

Cn1c([N+](=O)[O-])cnc1COP(=O)(N(CCCl)CCCl)N(CCCl)CCCl [Compound 155]
solubility [21]: < 1000 µg/mL
